From patent US10301280B2 (Plexxikon Inc., priority 2012, dated 2019)

The molecules below were run against c-kit kinase (Homo sapiens (Human), UniProt P10721) (assay: c-Kit biochemical assay (AlphaScreen)). Conditions: c-kit biochemical inhibitory activity.
Sequence of c-kit kinase (P10721 26-976): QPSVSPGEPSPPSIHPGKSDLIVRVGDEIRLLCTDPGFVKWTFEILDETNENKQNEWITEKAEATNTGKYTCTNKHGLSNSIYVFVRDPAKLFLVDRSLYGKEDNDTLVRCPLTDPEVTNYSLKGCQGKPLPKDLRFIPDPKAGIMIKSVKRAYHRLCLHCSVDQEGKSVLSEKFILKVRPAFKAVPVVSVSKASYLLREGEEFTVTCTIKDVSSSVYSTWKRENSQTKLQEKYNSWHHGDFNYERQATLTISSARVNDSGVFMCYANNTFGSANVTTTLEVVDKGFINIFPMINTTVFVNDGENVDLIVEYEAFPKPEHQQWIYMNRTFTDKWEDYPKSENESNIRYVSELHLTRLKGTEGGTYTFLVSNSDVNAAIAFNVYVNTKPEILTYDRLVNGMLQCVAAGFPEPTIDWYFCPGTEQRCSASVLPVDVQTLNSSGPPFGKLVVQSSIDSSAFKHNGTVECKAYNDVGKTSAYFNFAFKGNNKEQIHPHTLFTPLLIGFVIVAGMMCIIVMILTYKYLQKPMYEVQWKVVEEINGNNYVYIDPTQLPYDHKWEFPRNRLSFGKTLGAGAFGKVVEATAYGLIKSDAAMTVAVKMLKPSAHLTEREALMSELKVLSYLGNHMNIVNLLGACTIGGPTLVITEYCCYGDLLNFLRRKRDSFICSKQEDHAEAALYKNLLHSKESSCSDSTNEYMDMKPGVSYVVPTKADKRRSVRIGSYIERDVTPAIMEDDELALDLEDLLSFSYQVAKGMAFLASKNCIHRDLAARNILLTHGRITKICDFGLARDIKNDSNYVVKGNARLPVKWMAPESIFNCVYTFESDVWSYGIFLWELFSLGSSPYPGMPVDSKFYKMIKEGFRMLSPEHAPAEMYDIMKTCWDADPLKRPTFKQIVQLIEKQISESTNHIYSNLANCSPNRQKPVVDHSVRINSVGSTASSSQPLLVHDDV
Experimental: Assays for biochemical cell-based activity of c-kit kinase are known in the art, for example, as described in U.S. Pat. Nos. 7,498,342 and 7,846,941, the disclosures of which are hereby incorporated by reference as it relates to such assays. The c-kit (or kinase domain thereof) is an active kinase in AlphaScreen. IC50 values are determined with respect to inhibition of c-Kit kinase activity, where inhibition of phosphorylation of a peptide substrate is measured as a function of compound concentration. Compounds to be tested were dissolved in DMSO to a concentration of 20 mM. These were diluted 30 μl into 120 μl of DMSO (4 mM) and 1 μl was added to an assay plate. These were then serially diluted 1:3 (50 μl to 100 μl DMSO) for a total of 8 points. Plates were prepared such that each kinase reaction is 20 μl in 1× kinase buffer (50 mM HEPES, pH 7.2, 5 mM MgCl2, 5 mM MnCl2, 0.01% NP-40, 0.2% BSA), 5% DMSO and 10 µM ATP. Substrate was 100 nM biotin-(E4Y)3 (Open Source Biotech, Inc.). C-kit kinase was at 0.1 ng per sample. After incubation of the kinase reaction for 1 hour at room temperature, 5 μl of donor beads (Streptavidin coated beads (Perkin Elmer Life Science) final concentration 1 μg/ml) in stop buffer (50 mM EDTA in 1× kinase buffer) was added, the sample was mixed and incubated for 20 minutes at room temperature before adding 5 μl of acceptor beads (PY20 coated beads (Perkin Elmer Life Science) final concentration 1 μg/ml) in stop buffer. The samples were incubated for 60 minutes at room temperature and the signal per well was read on AlphaQuest reader. Phosphorylated substrate results in binding of the PY20 antibody and association of the donor and acceptor beads such that signal correlates with kinase activity. The signal vs. compound concentration was used to determine the IC50.
Compounds were also tested using a similar assay with a 10-fold higher ATP concentration. For these samples, compounds to be tested were dissolved in DMSO to a concentration of 20 mM. These were diluted 30 μl into 120 μl of DMSO (4 mM) and 1 μl was added to an assay plate. These were then serially diluted 1:3 (50 μl to 100 μl DMSO) for a total of 8 points. Plates were prepared such that each kinase reaction is 20 μl in 1× kinase buffer (25 mM HEPES, pH 7.5, 2 mM MgCl2, 2 mM MnCl2, 0.01% Tween-20, 1 mM DTT, and 0.001% BSA), 5% DMSO and 100 µM ATP. Substrate was 30 nM biotin-(E4Y)10 (Upstate Biotech, Cat#12-440). C-kit kinase was at 1 ng per sample. After incubation of the kinase reaction for 1 hour at room temperature, 5 μl of donor beads (Streptavidin coated beads (Perkin Elmer Life Science) final concentration 10 μg/ml) in stop buffer (25 mM HEPES pH 7.5, 100 mM EDTA, 0.3% BSA) was added, the sample was mixed and incubated for 20 minutes at room temperature before adding 5 μl of acceptor beads (PY20 coated beads (Perkin Elmer Life Science) final concentration 10 μg/ml) in stop buffer. The samples were incubated for 60 minutes at room temperature and the signal per well was read on AlphaQuest or Envision reader (Perkin Elmer Life Science). Phosphorylated substrate results in binding of the PY20 antibody and association of the donor and acceptor beads such that signal correlates with kinase activity. The signal vs. compound concentration was used to determine the IC50.
The c-kit enzyme used in the above assay was either obtained from Cell Signaling Technology (Cat. #7754) or was prepared as follows: A plasmid encoding kit (DNA and encoded protein sequences shown below) was engineered using common polymerase chain reaction (PCR) methods. Complementary DNA cloned from various human tissues were purchased from Invitrogen, and these were used as substrates in the PCR reactions. Specific custom synthetic oligonucleotide primers were designed to initiate the PCR product, and also to provide the appropriate restriction enzyme cleavage sites for ligation with the plasmids. […]
CCNS(=O)(=O)c1cccc(Nc2ncc(NC(=O)c3[nH]nc(C)c3C)cn2)c1 [P-2050, N-[2-[3-(ethylsulfamoyl)anilino]pyrimidin-5-yl]-3,4-dimethyl-1H-pyrazole-5-carboxamide] gave an IC50 of 10 to 200 µM. Cc1cncc(-c2cc3cc(NC(=O)c4[nH]nc(C)c4C)cnc3[nH]2)c1 [P-2184, 3,4-dimethyl-N-[2-(5-methyl-3-pyridyl)-1H-pyrrolo[2,3-b]pyridin-5-yl]-1H-pyrazole-5-carboxamide] gave an IC50 of 1 to 10 µM. For CCc1cc(-c2cc3cc(NC(=O)c4[nH]nc(C)c4C)cnc3[nH]2)ccn1 [P-2177, N-[2-(2-ethyl-4-pyridyl)-1H-pyrrolo[2,3-b]pyridin-5-yl]-3,4-dimethyl-1H-pyrazole-5-carboxamide], the IC50 was 0.0001 to 1 µM. Cc1n[nH]c(C(=O)Nc2cnc3[nH]c(-c4ccc(C(=O)O)c(F)c4)cc3c2)c1C [P-2292, 4-[5-[(3,4-dimethyl-1H-pyrazole-5-carbonyl)amino]-1H-pyrrolo[2,3-b]pyridin-2-yl]-2-fluoro-benzoic acid] gave an IC50 of 0.0001 to 1 µM. For CCCS(=O)(=O)Nc1cccc(Nc2ncc(NC(=O)c3[nH]nc(C)c3C)cn2)c1 [P-2052, 3,4-dimethyl-N-[2-[3-(propylsulfonylamino)anilino]pyrimidin-5-yl]-1H-pyrazole-5-carboxamide], the IC50 was 1 to 10 µM. In the case of Cc1n[nH]c(C(=O)Nc2cnc(Nc3ccccc3)nc2)c1C [P-2044, N-(2-anilinopyrimidin-5-yl)-3,4-dimethyl-1H-pyrazole-5-carboxamide], the IC50 is reported as 10 to 200 µM. Work on Cc1n[nH]c(C(=O)Nc2cnc3[nH]c(-c4ccc(F)cc4)cc3c2)c1Cl [P-2023, 4-chloro-N-[2-(4-fluorophenyl)-1H-pyrrolo[2,3-b]pyridin-5-yl]-3-methyl-1H-pyrazole-5-carboxamide] yielded an IC50 of 1 to 10 µM. In the case of Cc1ccc(-c2cc3cc(NC(=O)c4[nH]nc(C)c4C)cnc3[nH]2)c(C)c1 [P-2181, N-[2-(2,4-dimethylphenyl)-1H-pyrrolo[2,3-b]pyridin-5-yl]-3,4-dimethyl-1H-pyrazole-5-carboxamide], the IC50 is reported as 10 to 200 µM. Cc1n[nH]c(C(=O)Nc2cnc3[nH]c(-c4cccc(N5CCNCC5)c4)cc3c2)c1C [P-2274, 3,4-dimethyl-N-[2-(3-piperazin-1-ylphenyl)-1H-pyrrolo[2,3-b]pyridin-5-yl]-1H-pyrazole-5-carboxamide] was tested, and the IC50 was 0.0001 to 1 µM. Work on Cc1n[nH]c(C(=O)Nc2cnc3[nH]c(-c4ccnc(N5CCN(S(C)(=O)=O)CC5)c4)cc3c2)c1C [P-2186, 3,4-dimethyl-N-[2-[2-(4-methylsulfonylpiperazin-1-yl)-4-pyridyl]-1H-pyrrolo[2,3-b]pyridin-5-yl]-1H-pyrazole-5-carboxamide] yielded an IC50 of 1 to 10 µM. CCOC(=O)Nc1cccc(Nc2ncc(NC(=O)c3[nH]nc(C)c3C)cn2)c1 [P-2055, ethyl N-[3-[[5-[(3,4-dimethyl-1H-pyrazole-5-carbonyl)amino]pyrimidin-2-yl]amino]phenyl]carbamate] gave an IC50 of 1 to 10 µM. Molecule Cc1n[nH]c(C(=O)Nc2cnc(Nc3cccc(N4CCOCC4)c3)nc2)c1C [P-2051, 3,4-dimethyl-N-[2-(3-morpholinoanilino)pyrimidin-5-yl]-1H-pyrazole-5-carboxamide] has an IC50 of 0.0001 to 1 µM. Work on Cc1n[nH]c(C(=O)Nc2cnc3[nH]c(-c4cccc5c4OCC5)cc3c2)c1C [P-2273, N-[2-(2,3-dihydrobenzofuran-7-yl)-1H-pyrrolo[2,3-b]pyridin-5-yl]-3,4-dimethyl-H-pyrazole-5-carboxamide] yielded an IC50 of 10 to 200 µM. For Cc1n[nH]c(C(=O)Nc2cnc3[nH]c(-c4cncc(C#N)c4)cc3c2)c1C [P-2270, N-[2-(5-cyano-3-pyridyl)-1H-pyrrolo[2,3-b]pyridin-5-yl]-3,4-dimethyl-1H-pyrazole-5-carboxamide], the IC50 was 10 to 200 µM. For CCn1nccc1S(=O)(=O)Nc1cnc2[nH]c(-c3ccc(F)cc3)cc2c1 [P-2030, 2-ethyl-N-[2-(4-fluorophenyl)-1H-pyrrolo[2,3-b]pyridin-5-yl]pyrazole-3-sulfonamide], the IC50 was 1 to 10 µM. For COc1ccc(-c2cc3cc(NC(=O)c4[nH]nc(C)c4C)cnc3[nH]2)c(C)c1C [P-2284, N-[2-(4-methoxy-2,3-dimethyl-phenyl)-1H-pyrrolo[2,3-b]pyridin-5-yl]-3,4-dimethyl-1H-pyrazole-5-carboxamide], the IC50 was 1 to 10 µM. Cc1n[nH]c(C(=O)Nc2ccc(Nc3ccccc3)nc2)c1C [P-2045, N-(6-anilino-3-pyridyl)-3,4-dimethyl-1H-pyrazole-5-carboxamide] gave an IC50 of 10 to 200 µM. Cc1n[nH]c(C(=O)Nc2cnc3[nH]c(-c4cnc(N5CCN(C)CC5)nc4)cc3c2)c1C [P-2160, 3,4-dimethyl-N-[2-[2-(4-methylpiperazin-1-yl)pyrimidin-5-yl]-1H-pyrrolo[2,3-b]pyridin-5-yl]-1H-pyrazole-5-carboxamide] was tested, and the IC50 was 1 to 10 µM. Work on Cc1n[nH]c(C(=O)Nc2cnc3[nH]c(-c4cccc5c4OC(F)(F)O5)cc3c2)c1C [P-2281, N-[2-(2,2-difluoro-1,3-benzodioxol-4-yl)-1H-pyrrolo[2,3-b]pyridin-5-yl]-3,4-dimethyl-1H-pyrazole-5-carboxamide] yielded an IC50 of 10 to 200 µM. Work on Cc1n[nH]c(C(=O)Nc2cnc3[nH]c(-c4ccnc(N5CCN(C(=O)CC#N)CC5)c4)cc3c2)c1C [P-2189, N-[2-[2-[4-(2-cyanoacetyl)piperazin-1-yl]-4-pyridyl]-1H-pyrrolo[2,3-b]pyridin-5-yl]-3,4-dimethyl-1H-pyrazole-5-carboxamide] yielded an IC50 of 0.0001 to 1 µM. Cc1n[nH]c(C(=O)Nc2cnc3[nH]c(-c4ccc(C5(C(=O)O)CC5)cc4)cc3c2)c1C [P-2294, 1-[4-[5-[(3,4-dimethyl-1H-pyrazole-5-carbonyl)amino]-1H-pyrrolo[2,3-b]pyridin-2-yl]phenyl]cyclopropanecarboxylic acid] was tested, and the IC50 was 0.0001 to 1 µM. Molecule O=C(Nc1cnc2[nH]c(-c3ccccc3)cc2c1)c1cn[nH]n1 [P-2015, N-(2-phenyl-1H-pyrrolo[2,3-b]pyridin-5-yl)-2H-triazole-4-carboxamide] has an IC50 of 1 to 10 µM. O=C(Nc1cnc2[nH]c(-c3ccc(F)cc3)cc2c1)c1cccc2n[nH]cc12 [P-2027, N-[2-(4-fluorophenyl)-1H-pyrrolo[2,3-b]pyridin-5-yl]-2H-indazole-4-carboxamide] showed an IC50 of 0.0001 to 1 µM. Work on Cc1n[nH]c(C(=O)Nc2cnc3[nH]c(-c4ccccc4C(F)(F)F)cc3c2)c1C [P-2180, 3,4-dimethyl-N-[2-[2-(trifluoromethyl)phenyl]-1H-pyrrolo[2,3-b]pyridin-5-yl]-1H-pyrazole-5-carboxamide] yielded an IC50 of 1 to 10 µM. COC(=O)c1cccc(C(=O)Nc2cnc3[nH]c(-c4ccccc4)cc3c2)c1 [P-2290, methyl 3-[(2-phenyl-1H-pyrrolo[2,3-b]pyridin-5-yl)carbamoyl]benzoate] was tested, and the IC50 was 10 to 200 µM. For Cc1nn(C2COC2)cc1-c1cc2cc(NC(=O)c3[nH]nc(C)c3C)cnc2[nH]1 [P-2168, 3,4-dimethyl-N-[2-[3-methyl-1-(oxetan-3-yl)pyrazol-4-yl]-1H-pyrrolo[2,3-b]pyridin-5-yl]-1H-pyrazole-5-carboxamide], the IC50 was 0.0001 to 1 µM. Cc1n[nH]c(C(=O)Nc2cnc3[nH]c(-c4c(C)n[nH]c4C)cc3c2)c1C [P-2167, N-[2-(3,5-dimethyl-1H-pyrazol-4-yl)-1H-pyrrolo[2,3-b]pyridin-5-yl]-3,4-dimethyl-1H-pyrazole-5-carboxamide] showed an IC50 of 0.0001 to 1 µM. Cc1n[nH]c(C(=O)Nc2cnc3[nH]c(-c4c(C)nn(C)c4C)cc3c2)c1C [P-2165, 3,4-dimethyl-N-[2-(1,3,5-trimethylpyrazol-4-yl)-1H-pyrrolo[2,3-b]pyridin-5-yl]-1H-pyrazole-5-carboxamide] was tested, and the IC50 was 0.0001 to 1 µM.
